Source: US20230142913A1, “TRICYCLIC HETEROARENES, PHARMACEUTICAL COMPOSITIONS CONTAINING THE SAME, AND METHODS OF USING THE SAME” (priority 2021, published 2023)

Molecular target: T1, recombinant human Myt1 (full length PKMYT1) (Homo sapiens, UniProt Q99640)
T1 sequence (Q99640 1-499): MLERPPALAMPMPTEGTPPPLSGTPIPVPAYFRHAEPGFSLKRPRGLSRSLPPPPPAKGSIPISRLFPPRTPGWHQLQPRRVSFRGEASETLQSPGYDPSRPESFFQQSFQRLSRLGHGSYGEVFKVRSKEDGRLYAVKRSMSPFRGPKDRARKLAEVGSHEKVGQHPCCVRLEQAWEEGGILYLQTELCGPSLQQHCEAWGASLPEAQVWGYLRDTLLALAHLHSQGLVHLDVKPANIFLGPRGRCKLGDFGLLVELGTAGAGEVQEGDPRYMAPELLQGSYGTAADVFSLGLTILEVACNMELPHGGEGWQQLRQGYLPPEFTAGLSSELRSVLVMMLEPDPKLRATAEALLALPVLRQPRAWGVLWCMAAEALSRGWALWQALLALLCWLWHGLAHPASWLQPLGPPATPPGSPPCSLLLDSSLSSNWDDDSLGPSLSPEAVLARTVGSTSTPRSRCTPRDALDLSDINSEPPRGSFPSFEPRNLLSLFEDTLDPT
Experiment: Recombinant human Myt1 kinase assay (ADP-Glo)
Settings: not given

Going from `NC(=O)c1c(N)n(-c2cc(O)ccc2Cl)c2nc3ccccc3nc12` [Compound 4] to `NC(=O)c1c(N)n(-c2cccc3[nH]nc(Cl)c23)c2nc3ccccc3nc12` [Compound 8], the IC50 rises from 130 nM to 289 nM (2.2-fold). The first is the more potent here.

First: NC(=O)c1c(N)n(-c2cccc3[nH]nc(F)c23)c2nc3ccccc3nc12 [Compound 9]
Second: CCc1c(O)ccc(C)c1-n1c(N)c(C(N)=O)c2nc3ccccc3nc21 [Compound 12]
The IC50 of the first is 2.9-fold higher: 281 nM for the first, 98 nM for the second.

Going from `Cc1ccc(O)c(C2CC2)c1-n1c(N)c(C(N)=O)c2nc3ccccc3nc21` [Compound 11] to `Cc1c(O)ccc(C2CC2)c1-n1c(N)c(C(N)=O)c2nc3ccccc3nc21` [Compound 85], the IC50 rises from 2170 nM to 48900 nM (23-fold).

Compared with `CCc1ccc(O)c(C)c1-n1c(N)c(C(N)=O)c2nc3ccccc3nc21` [Compound 13], `Cc1ccc(O)c(C)c1-n1c(N)c(C(N)=O)c2nc3cc(-c4ccccc4)ccc3nc21` [Compound 47] is lower in IC50: 427 nM for the first, under 10 nM for the second.

First: Cc1ccc(O)cc1-n1c(N)c(C(N)=O)c2nc3nc(N)sc3nc21 [Compound 16, 2,6-diamino-5-(5-hydroxy-2-methylphenyl)-5H-pyrrolo[2,3-b]thiazolo[4,5-e]pyrazine-7-carboxamide]
Second: Cc1ccc(O)cc1-n1c(N)c(C(=O)NC2CC2)c2nc3ccccc3nc21 [Compound 20, 2-amino-N-cyclopropyl-1-(5-hydroxy-2-methylphenyl)-1H-pyrrolo[2,3-b]quinoxaline-3-carboxamide]
The IC50 of the first is 81-fold lower: 94 nM for the first, 7580 nM for the second. The first is the more potent here.

Going from `Cc1ccc(O)cc1-n1cc(C(N)=O)c2nc3ccccc3nc21` [Compound 23] to `Cc1ccc(O)c(C)c1-n1cc(C(N)=O)c2c3ccccc3cnc21` [Compound 88, 3-(3-hydroxy-2,6-dimethylphenyl)-3H-pyrrolo[2,3-c]isoquinoline-1-carboxamide], the IC50 falls from 323 nM to 32 nM (10-fold). The second is the more potent here.

Compared with `Cc1ccc(O)c(C)c1-n1c(N)c(C(N)=O)c2nc3c(F)ccc(F)c3nc21` [Compound 28], `C=C(C)c1ccc2nc3c(C(N)=O)c(N)n(-c4c(C)ccc(O)c4C)c3nc2c1` [Compound 68, 2-amino-1-(3-hydroxy-2,6-dimethyl-phenyl)-7-isopropenyl-pyrrolo[3,2-b]quinoxaline-3-carboxamide or either 2-amino-1-(3-hydroxy-2,6-dimethyl-phenyl)-6-isopropenyl-pyrrolo[3,2-b]quinoxaline-3-carboxamide] is higher in IC50: under 10 nM for the first, 13 nM for the second. The first is the more potent here.

First: Cc1ccc(O)c(C)c1-n1c(N)c(C(N)=O)c2nc3c(C#CC4CC4)cccc3nc21 [Compound 33]
Second: Cc1ccc(O)c(C)c1-n1c(N)c(C(N)=O)c2nc3cc(C#CC4CC4)ccc3nc21 [Compound 40]
The IC50 of the first is higher: 16 nM for the first, under 10 nM for the second. The second is the more potent here.

Compared with `Cc1ccc(O)c(C)c1-n1c(N)c(C(N)=O)c2nc3c(C4=CCOCC4)cccc3nc21` [Compound 34], `Cc1ccc(O)c(C)c1-n1c(N)c(C(N)=O)c2nc3cc(C4=CCOCC4)ccc3nc21` [Compound 51] is lower in IC50: 12 nM for the first, under 10 nM for the second. The second is the more potent here.

Going from `Cc1ccc(O)c(C)c1-n1c(N)c(C(N)=O)c2nc3c(-c4cccn4C)cccc3nc21` [Compound 35] to `Cc1ccc(O)c(C)c1-n1c(N)c(C(N)=O)c2nc3c(-c4ccccc4)cccc3nc21` [Compound 36], the IC50 rises from under 10 nM to 17 nM.

`Cc1ccc(O)c(C)c1-n1c(N)c(C(N)=O)c2nc3cc(C#Cc4cnccn4)ccc3nc21` [Compound 43] and `Cc1ccc(O)c(C)c1-n1c(N)c(C(N)=O)c2nc3cc(C#CCO)ccc3nc21` [Compound 45, 2-amino-1-(3-hydroxy-2,6-dimethyl-phenyl)-6-(3-hydroxyprop-1-ynyl)pyrrolo[2,3-b]quinoxaline-3-carboxamide] cannot be ordered by IC50: under 10 nM for the first, under 10 nM for the second.

Going from `Cc1ccc(O)c(C)c1-n1c(N)c(C(N)=O)c2nc3cc(C#CCN4CCOCC4)ccc3nc21` [Compound 44] to `Cc1ccc(O)c(C)c1-n1c(N)c(C(N)=O)c2nc3ccc(C#CCO)cc3nc21` [Compound 58], the IC50 rises from under 10 nM to 11 nM. The first is the more potent here.

`Cc1ccc(O)c(C)c1-n1c(N)c(C(N)=O)c2nc3cc(CCCO)ccc3nc21` [Compound 46, 2-amino-1-(3-hydroxy-2,6-dimethyl-phenyl)-6-(3-hydroxypropyl)pyrrolo[2,3-b]quinoxaline-3-carboxamide] and `Cc1ccc(O)c(C)c1-n1c(N)c(C(N)=O)c2nc3cc(-c4cn[nH]c4)ccc3nc21` [Compound 54] cannot be ordered by IC50: under 10 nM for the first, under 10 nM for the second.

Compared with `Cc1ccc(O)c(C)c1-n1c(N)c(C(N)=O)c2nc3cc(-c4cccc(C#N)c4)ccc3nc21` [Compound 48], `Cc1ccc(O)c(C)c1-n1c(N)c(C(N)=O)c2nc3cc(-c4ccc(N5CCN(CCO)CC5)cc4)ccc3nc21` [Compound 52] is lower in IC50: 11 nM for the first, under 10 nM for the second. The second is the more potent here.

First: Cc1ccc(O)c(C)c1-n1c(N)c(C(N)=O)c2nc3c(nc21)CCCC3 [Compound 84]
Second: Cc1ccc(O)c(C)c1-n1cc(C(N)=O)c2cc3c(cnn3C)nc21 [Compound 89, 5-(3-hydroxy-2,6-dimethylphenyl)-1-methyl-1,5-dihydropyrazolo[4,3-b]pyrrolo[3,2-e]pyridine-7-carboxamide]
The IC50 of the first is 2.8-fold lower: 11 nM for the first, 31 nM for the second.

Same assay, conditions: Myt1 IC50 (nM), recombinant human Myt1 18 nM, ATP 10 μM, ADP-Glo luminescence

`Cc1ccc(O)c(C)c1-n1c(N)c(C(N)=O)c2nc3cc(Br)ccc3nc21` [Compound 38, 2-amino-6-bromo-1-(3-hydroxy-2,6-dimethyl-phenyl)pyrrolo[2,3-b]quinoxaline-3-carboxamide] and `Cc1ccc(O)c(C)c1-n1c(N)c(C(N)=O)c2nc3cccc(Br)c3nc21` [Compound 59, 2-amino-8-bromo-1-(3-hydroxy-2,6-dimethyl-phenyl)pyrrolo[3,2-b]quinoxaline-3-carboxamide] cannot be ordered by IC50: under 10 nM for the first, under 10 nM for the second.

`Cc1ccc(O)c(C)c1-n1c(N)c(C(N)=O)c2nc3cccc(-c4ccnn4C)c3nc21` [Compound 61] and `Cc1ccc(O)c(C)c1-n1c(N)c(C(N)=O)c2nc3cccc(C4=CCCC4)c3nc21` [Compound 62] cannot be ordered by IC50: under 10 nM for the first, under 10 nM for the second.

Same assay, conditions: read-out: Myt1 IC50; recombinant human Myt1 18 nM, ATP 10 μM, ADP-Glo luminescence

“2-amino-1-(3-hydroxy-2,6-dimethyl-phenyl)-7-(1-hydroxy-1-methyl-ethyl)pyrrolo[3,2-b]quinoxaline-3-carboxamide or 2-amino-1-(3-hydroxy-2,6-dimethyl-phenyl)-6-(1-hydroxy-1-methyl-ethyl)pyrrolo[3,2-b]quinoxaline-3-carboxamide [Compound 67]” and “2-amino-1-(3-hydroxy-2,6-dimethyl-phenyl)-7-(morpholine-4-carbonyl)pyrrolo[3,2-b]quinoxaline-3-carboxamide or 2-amino-1-(3-hydroxy-2,6-dimethyl-phenyl)-6-(morpholine-4-carbonyl)pyrrolo[3,2-b]quinoxaline-3-carboxamide [Compound 66]” are within 1.5-fold of each other in IC50: 10 nM for the first, 13 nM for the second.

“2-amino-1-(3-hydroxy-2,6-dimethylphenyl)-1H-pyrido[2,3-b]pyrrolo[2,3-e]pyrazine-3-carboxamide or 2-amino-1-(3-hydroxy-2,6-dimethylphenyl)-1H-pyrido[2,3-b]pyrrolo[3,2-e]pyrazine-3-carboxamide [Compound 82]” and “2-amino-7-bromo-1-(3-hydroxy-2,6-dimethylphenyl)-1H-pyrido[2,3-b]pyrrolo[2,3-e]pyrazine-3-carboxamide or 2-amino-6-bromo-1-(3-hydroxy-2,6-dimethylphenyl)-1H-pyrido[2,3-b]pyrrolo[3,2-e]pyrazine-3-carboxamide [Compound 79]” are within 1.5-fold of each other in IC50: 21 nM for the first, 30 nM for the second.
